# Experimental data published in US20080090892A1, “AMORPHOUS ASENAPINE AND PROCESSES FOR PREPARING SAME” (N.V. Organon, priority 2006, published 2008).
# Structures can show the parent of a compound that is named as a salt.
# Assay: Relative humidity (RH) study, visual assessment in double-vial relative humidity chambers
# Format: physicochemical
# Settings: approximately 36 hours
# Experimental: Relative Humidity (RH): An RH study was conducted to determine appropriate handling conditions for amorphous asenapine maleate. Samples of Batch A1 were placed in double-vial relative humidity chambers at 3.4% RH, 8.2% RH and 22.5% RH and were visually assessed after approximately 36 hours.
smiles,measurement,setting,value
"CN1C[C@@H]2c3ccccc3Oc3ccc(Cl)cc3[C@H]2C1 (relative stereo) [Batch A1, trans-5-chloro-2-methyl-2,3,3a,12b-tetrahydro-1H-dibenz[2,3:6,7]oxepino[4,5-c]pyrrole maleate]",physical state after storage at controlled relative humidity (visual assessment),3.4% RH,remained solid
same,physical state after storage at controlled relative humidity (visual assessment),8.2% RH,remained solid
same,physical state after storage at controlled relative humidity (visual assessment),22.5% RH,deliquesced
